Experiments:
[1] = biological target: 5-hydroxytryptamine receptor 1D (Homo sapiens, UniProt P28221); test: Binding affinity to 5HT1D receptor (unknown origin)
[2] = biological target: Alpha-1B adrenergic receptor (Homo sapiens, UniProt P35368); test: Binding affinity to adrenergic alpha1B receptor (unknown origin)
[3] = biological target: 5-hydroxytryptamine receptor 1B (Homo sapiens, UniProt P28222); test: Binding affinity to 5HT1B receptor (unknown origin)
[4] = biological target: Alpha-2C adrenergic receptor (Homo sapiens, UniProt P18825); test: Binding affinity to adrenergic alpha2C receptor (unknown origin)
[5] = biological target: Histamine H1 receptor (Homo sapiens, UniProt P35367); test: Binding affinity to histamine H1 receptor (unknown origin)
Histamine H1 receptor, sequence (P35367 whole entry): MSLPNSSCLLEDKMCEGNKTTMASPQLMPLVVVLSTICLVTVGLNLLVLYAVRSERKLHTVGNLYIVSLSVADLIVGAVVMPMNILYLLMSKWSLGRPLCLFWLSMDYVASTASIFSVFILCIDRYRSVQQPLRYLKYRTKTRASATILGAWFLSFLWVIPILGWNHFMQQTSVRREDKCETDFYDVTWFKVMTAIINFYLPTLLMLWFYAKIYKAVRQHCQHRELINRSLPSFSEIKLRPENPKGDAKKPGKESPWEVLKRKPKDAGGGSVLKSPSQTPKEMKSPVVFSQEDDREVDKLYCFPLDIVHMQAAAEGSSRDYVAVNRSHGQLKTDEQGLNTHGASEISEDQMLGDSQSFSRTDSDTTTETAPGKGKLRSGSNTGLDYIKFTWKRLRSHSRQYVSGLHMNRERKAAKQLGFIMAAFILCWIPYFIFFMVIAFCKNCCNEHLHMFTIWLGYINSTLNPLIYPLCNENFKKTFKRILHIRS

[6] = biological target: D(4) dopamine receptor (Homo sapiens, UniProt P21917); test: Binding affinity to dopamine 4 receptor (unknown origin)
D(4) dopamine receptor, sequence (P21917 whole entry): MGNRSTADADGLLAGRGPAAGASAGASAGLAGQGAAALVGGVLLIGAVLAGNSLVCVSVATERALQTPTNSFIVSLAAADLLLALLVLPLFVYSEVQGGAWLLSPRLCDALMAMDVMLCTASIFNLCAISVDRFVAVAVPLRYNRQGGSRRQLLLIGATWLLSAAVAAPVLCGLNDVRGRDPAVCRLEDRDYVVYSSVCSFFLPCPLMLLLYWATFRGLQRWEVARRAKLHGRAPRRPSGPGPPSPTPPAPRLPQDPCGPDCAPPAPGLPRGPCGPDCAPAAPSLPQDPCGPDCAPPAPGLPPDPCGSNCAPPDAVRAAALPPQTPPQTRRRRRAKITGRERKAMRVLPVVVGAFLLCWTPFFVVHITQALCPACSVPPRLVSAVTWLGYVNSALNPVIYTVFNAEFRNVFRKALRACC

[7] = biological target: 5-hydroxytryptamine receptor 2A (Homo sapiens, UniProt P28223); test: Binding affinity to 5HT2A receptor (unknown origin)
[8] = biological target: T1, 5-hydroxytryptamine receptor 1A (Homo sapiens, UniProt P08908); test: Binding affinity to 5HT1A receptor (unknown origin)
T1 sequence (P08908 whole entry): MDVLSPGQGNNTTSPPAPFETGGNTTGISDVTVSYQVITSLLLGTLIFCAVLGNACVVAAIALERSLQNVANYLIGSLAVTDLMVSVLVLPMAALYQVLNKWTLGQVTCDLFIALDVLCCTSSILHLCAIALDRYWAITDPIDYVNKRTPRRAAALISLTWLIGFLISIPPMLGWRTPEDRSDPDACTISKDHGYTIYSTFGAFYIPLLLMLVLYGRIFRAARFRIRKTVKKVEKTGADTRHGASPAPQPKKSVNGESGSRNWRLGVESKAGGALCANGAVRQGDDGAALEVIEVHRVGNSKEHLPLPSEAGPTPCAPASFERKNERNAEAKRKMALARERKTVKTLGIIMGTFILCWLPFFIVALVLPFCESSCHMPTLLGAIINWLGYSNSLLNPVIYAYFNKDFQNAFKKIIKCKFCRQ

[9] = biological target: Histamine H2 receptor (Homo sapiens, UniProt P25021); test: Binding affinity to histamine H2 receptor (unknown origin)
Histamine H2 receptor, sequence (P25021 whole entry): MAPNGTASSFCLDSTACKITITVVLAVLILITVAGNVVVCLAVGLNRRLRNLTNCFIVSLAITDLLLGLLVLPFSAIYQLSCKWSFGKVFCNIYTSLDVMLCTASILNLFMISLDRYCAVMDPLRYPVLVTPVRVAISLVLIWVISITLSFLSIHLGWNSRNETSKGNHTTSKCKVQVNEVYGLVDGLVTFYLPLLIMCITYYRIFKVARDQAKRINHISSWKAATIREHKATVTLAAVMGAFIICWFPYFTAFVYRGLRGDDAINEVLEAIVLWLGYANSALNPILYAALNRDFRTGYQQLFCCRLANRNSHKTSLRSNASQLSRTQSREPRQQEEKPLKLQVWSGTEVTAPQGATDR

[10] = biological target: T1, 5-hydroxytryptamine receptor 1A; test: Partial agonist activity at human 5HT1A receptor expressed in CHO cells assessed as increase in [35S]GTPgammaS binding; format: functional, cell-based
[11] = biological target: D(1A) dopamine receptor (Homo sapiens, UniProt P21728); test: Binding affinity to dopamine 1 receptor (unknown origin)
D(1A) dopamine receptor, sequence (P21728 whole entry): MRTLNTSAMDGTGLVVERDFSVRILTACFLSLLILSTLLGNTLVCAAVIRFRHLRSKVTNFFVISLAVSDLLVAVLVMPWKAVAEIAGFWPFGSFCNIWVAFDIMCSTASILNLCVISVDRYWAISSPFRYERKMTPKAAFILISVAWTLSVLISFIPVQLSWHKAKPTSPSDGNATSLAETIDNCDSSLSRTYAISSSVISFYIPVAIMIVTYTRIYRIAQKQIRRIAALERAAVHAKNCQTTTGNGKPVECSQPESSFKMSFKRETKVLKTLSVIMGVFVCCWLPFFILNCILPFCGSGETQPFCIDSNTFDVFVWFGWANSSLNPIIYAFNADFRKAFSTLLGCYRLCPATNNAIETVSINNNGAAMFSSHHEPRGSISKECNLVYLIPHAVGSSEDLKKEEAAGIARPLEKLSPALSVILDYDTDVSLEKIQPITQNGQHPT

[12] = Binding affinity to sigma 2 receptor (unknown origin); set-up: species or system Homo sapiens
[13] = biological target: Alpha-1A adrenergic receptor (Homo sapiens, UniProt P35348); test: Binding affinity to adrenergic alpha1A receptor (unknown origin)
Alpha-1A adrenergic receptor, sequence (P35348 whole entry): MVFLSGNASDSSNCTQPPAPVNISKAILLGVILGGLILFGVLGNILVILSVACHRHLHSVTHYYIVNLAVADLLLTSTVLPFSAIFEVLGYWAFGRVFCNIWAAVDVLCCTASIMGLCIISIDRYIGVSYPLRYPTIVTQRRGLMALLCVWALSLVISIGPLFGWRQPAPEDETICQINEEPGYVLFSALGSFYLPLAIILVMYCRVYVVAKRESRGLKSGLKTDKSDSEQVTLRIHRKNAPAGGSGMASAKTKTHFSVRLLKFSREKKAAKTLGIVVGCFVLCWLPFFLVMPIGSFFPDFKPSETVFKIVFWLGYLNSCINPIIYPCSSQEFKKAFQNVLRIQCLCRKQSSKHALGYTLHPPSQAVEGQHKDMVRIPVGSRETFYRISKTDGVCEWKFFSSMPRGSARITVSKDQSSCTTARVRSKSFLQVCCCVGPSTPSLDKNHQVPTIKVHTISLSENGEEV

[14] = biological target: Sigma non-opioid intracellular receptor 1 (Homo sapiens, UniProt Q99720); test: Binding affinity to sigma 1 receptor (unknown origin)
[15] = biological target: D(3) dopamine receptor (Homo sapiens, UniProt P35462); test: Binding affinity to dopamine 3 receptor (unknown origin)
D(3) dopamine receptor, sequence (P35462 whole entry): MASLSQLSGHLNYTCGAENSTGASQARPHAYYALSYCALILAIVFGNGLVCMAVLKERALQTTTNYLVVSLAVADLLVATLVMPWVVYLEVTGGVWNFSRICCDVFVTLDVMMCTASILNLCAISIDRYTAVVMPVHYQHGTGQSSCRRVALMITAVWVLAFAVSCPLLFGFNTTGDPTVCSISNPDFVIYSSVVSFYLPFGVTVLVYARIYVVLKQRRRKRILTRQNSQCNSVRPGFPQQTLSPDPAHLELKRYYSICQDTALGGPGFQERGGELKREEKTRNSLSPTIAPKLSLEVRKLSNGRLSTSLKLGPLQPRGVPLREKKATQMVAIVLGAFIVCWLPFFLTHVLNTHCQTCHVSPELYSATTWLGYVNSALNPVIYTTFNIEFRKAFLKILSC

[16] = biological target: Alpha-1D adrenergic receptor (Homo sapiens, UniProt P25100); test: Binding affinity to adrenergic alpha1D receptor (unknown origin)
[17] = biological target: 5-hydroxytryptamine receptor 7 (Homo sapiens, UniProt P34969); test: Binding affinity to 5HT7 receptor (unknown origin)
5-hydroxytryptamine receptor 7, sequence (P34969 whole entry): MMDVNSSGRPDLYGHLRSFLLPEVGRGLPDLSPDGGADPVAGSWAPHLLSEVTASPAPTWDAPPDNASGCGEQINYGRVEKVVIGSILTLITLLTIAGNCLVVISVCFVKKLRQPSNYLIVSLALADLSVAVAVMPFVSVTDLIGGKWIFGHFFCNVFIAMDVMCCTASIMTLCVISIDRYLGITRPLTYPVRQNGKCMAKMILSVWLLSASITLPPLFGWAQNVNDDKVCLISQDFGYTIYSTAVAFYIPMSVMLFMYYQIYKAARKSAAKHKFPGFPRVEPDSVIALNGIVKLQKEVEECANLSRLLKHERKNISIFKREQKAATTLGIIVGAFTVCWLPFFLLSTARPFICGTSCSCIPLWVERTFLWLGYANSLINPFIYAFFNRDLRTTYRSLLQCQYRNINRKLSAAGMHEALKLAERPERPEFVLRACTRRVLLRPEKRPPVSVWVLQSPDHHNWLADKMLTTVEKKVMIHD

[18] = biological target: 5-hydroxytryptamine receptor 2B (Homo sapiens, UniProt P41595); test: Binding affinity to 5HT2B receptor (unknown origin)
5-hydroxytryptamine receptor 2B, sequence (P41595 whole entry): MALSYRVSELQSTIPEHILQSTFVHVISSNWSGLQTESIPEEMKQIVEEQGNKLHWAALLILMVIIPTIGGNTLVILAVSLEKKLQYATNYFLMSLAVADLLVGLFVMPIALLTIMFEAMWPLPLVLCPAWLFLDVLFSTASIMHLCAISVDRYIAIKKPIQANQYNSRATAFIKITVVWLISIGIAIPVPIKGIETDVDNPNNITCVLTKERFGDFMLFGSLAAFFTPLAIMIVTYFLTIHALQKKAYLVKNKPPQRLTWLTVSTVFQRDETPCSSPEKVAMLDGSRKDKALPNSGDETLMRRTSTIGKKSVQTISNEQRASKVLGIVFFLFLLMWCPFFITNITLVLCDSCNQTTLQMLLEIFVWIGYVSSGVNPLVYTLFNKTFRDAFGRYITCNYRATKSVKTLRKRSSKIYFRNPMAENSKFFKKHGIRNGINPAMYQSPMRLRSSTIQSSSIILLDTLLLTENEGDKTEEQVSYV

[19] = biological target: Alpha-2B adrenergic receptor (Homo sapiens, UniProt P18089); test: Binding affinity to adrenergic alpha2B receptor (unknown origin)
[20] = biological target: Alpha-2A adrenergic receptor (Homo sapiens, UniProt P08913); test: Binding affinity to adrenergic alpha2A receptor (unknown origin)
Alpha-2A adrenergic receptor, sequence (P08913 whole entry): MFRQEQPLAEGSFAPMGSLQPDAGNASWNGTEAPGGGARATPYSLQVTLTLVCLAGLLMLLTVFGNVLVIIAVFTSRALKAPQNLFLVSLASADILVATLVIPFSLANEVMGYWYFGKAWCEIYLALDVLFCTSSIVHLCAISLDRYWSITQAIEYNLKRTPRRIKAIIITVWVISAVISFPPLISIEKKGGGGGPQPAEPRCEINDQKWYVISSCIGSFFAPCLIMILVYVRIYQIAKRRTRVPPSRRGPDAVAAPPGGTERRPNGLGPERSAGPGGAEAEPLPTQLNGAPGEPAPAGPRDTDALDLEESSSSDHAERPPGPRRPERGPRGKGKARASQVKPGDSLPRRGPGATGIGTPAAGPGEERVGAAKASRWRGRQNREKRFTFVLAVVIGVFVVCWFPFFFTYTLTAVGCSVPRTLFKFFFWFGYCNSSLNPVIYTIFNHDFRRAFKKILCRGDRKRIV

[21] = biological target: 5-hydroxytryptamine receptor 1A (Homo sapiens) (UniProt P08908); test: Partial agonist activity at human 5HT1A receptor expressed in CHO cells assessed as increase in [35S]GTPgammaS binding relative to serotonin; format: functional, cell-based
[22] = Binding affinity to benzodiazepine receptor in rat brain; format: tissue-based
[23] = biological target: D(2) dopamine receptor (Homo sapiens, UniProt P14416); test: Binding affinity to dopamine 2 receptor (unknown origin)
[24] = biological target: 5-hydroxytryptamine receptor 5A (Homo sapiens, UniProt P47898); test: Binding affinity to 5HT5A receptor (unknown origin)
5-hydroxytryptamine receptor 5A, sequence (P47898 whole entry): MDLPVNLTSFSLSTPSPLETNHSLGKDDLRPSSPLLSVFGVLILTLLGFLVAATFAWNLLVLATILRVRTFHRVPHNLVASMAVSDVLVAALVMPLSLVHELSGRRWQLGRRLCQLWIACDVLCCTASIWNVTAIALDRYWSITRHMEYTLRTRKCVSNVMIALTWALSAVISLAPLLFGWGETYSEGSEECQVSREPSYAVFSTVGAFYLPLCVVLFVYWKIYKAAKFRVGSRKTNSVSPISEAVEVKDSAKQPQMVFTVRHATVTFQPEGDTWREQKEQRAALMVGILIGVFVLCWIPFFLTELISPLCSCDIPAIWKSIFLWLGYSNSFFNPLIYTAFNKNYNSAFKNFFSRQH

Alpha-1B adrenergic receptor, sequence (P35368 whole entry): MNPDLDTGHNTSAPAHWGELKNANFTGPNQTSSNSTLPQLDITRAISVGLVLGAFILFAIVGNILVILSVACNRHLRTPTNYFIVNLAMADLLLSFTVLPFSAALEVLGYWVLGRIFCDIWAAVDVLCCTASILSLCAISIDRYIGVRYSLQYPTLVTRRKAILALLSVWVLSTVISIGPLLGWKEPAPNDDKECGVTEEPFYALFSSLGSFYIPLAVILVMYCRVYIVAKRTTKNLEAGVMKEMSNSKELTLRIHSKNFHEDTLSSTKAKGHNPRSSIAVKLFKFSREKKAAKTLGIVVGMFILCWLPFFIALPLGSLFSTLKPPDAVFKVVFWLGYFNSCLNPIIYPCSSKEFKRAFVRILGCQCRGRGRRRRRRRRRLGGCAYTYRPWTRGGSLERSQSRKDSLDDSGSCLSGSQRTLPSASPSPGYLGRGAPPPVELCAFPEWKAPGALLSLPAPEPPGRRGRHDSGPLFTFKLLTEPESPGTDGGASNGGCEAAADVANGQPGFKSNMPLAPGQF

| SMILES | Ki [1] [nM] | Ki [2] [nM] | Ki [3] [nM] | Ki [4] [nM] | Ki [5] [nM] | Ki [6] [nM] | Ki [7] [nM] | Ki [8] [nM] | Ki [9] [nM] | EC50 [10] [nM] | Ki [11] [nM] | Ki [12] [nM] | Ki [13] [nM] | Ki [14] [nM] | Ki [15] [nM] | Ki [16] [nM] | Ki [17] [nM] | Ki [18] [nM] | Ki [19] [nM] | Ki [20] [nM] | also measured |
| --- | --- | --- | --- | --- | --- | --- | --- | --- | --- | --- | --- | --- | --- | --- | --- | --- | --- | --- | --- | --- | --- |
| COc1ccccc1N1CCN(CCCCn2ncc(=O)n(C)c2=O)CC1 | 88.3 | > 10000 | 643 | 15 | 1030 | 21 | 4980 | 0.15 | 2130 | 0.1 | > 10000 | 123 | 6.75 | 59 | > 10000 | > 10000 | 12.9 | 73.6 | 238 | 96 | Emax [21]: 80%; Ki [22]: > 10000 nM; Ki [23]: > 10000 nM; Ki [24]: > 10000 nM |
| Cn1c(=O)cnn(CCCCN2CCN(c3ccccc3OCCF)CC2)c1=O | 235 | 26.8 | 411 | 174 | 512 | 71 | > 10000 | 0.1 | 1770 | 0.65 | > 10000 | 1730 | 21.4 | > 10000 | 22 | 62.6 | 17.2 | 300 | 56.2 | 2750 | Emax [21]: 77%; Ki [22]: 6240 nM; Ki [23]: 37.1 nM; Ki [24]: 2130 nM |

Reference: ChEMBL document CHEMBL2413016, “Synthesis and in vivo evaluation of [(18)F]2-(4-(4-(2-(2-fluoroethoxy)phenyl)piperazin-1-yl)butyl)-4-methyl-1,2,4-triazine-3,5(2H,4H)-dione ([(18)F]FECUMI-101) as an imaging probe for 5-HT1A receptor agonist in nonhuman primates” (Bioorg Med Chem, 2013)
